According to patent US6458748B1, “Di- or tri-fluoromethanesulfonyl anilide derivatives, process for the preparation of them and herbicides containing them as the active ingredient” (Ihara Chemical Industry Co., Ltd., priority 1998, dated 2002):

Tests used:
[1] = test system: Echinochloa oryzicola vasing.; assay: Test 1 paddy pot herbicidal effect, water surface application; type: in vivo; conditions: applied day after sowing, evaluated 28 days later
Source text: (§1) Standard of herbicidal effect (level of suppression of development and growth) […] Herbicidal effect of 90% or more, injury to paddy rice […] Herbicidal effect of 70% or more to less than 90%, injury to paddy rice […] 2: […]

[2] = test system: Monochoria vaginalis (Burm. f.) Presl var. plantaginea (Roxb.) Solms-Laub.; assay: as above; type: in vivo; conditions: applied day after sowing, evaluated 28 days later
Source text: as §1

[3] = test system: Echinochloa oryzicola vasing.; assay: Test 3 herbicidal effect, application before germination or at 3-leaf stage; conditions: 28th day from application
[4] = test system: Echindchloa oryzicola Vasing. (Ec); assay: Test 5 herbicidal effect by application stage; conditions: 28th day from application
Sagittaria pygmaea Miq. [5] = assay: Test 4 paddy pot herbicidal effect; conditions: applied next day, 28th day from application
[6] = test system: Echinochloa oryzicola vasing.; assay: Test 4 paddy pot herbicidal effect; conditions: applied next day, 28th day from application
[7] = test system: Oryza sativa L. (paddy rice); assay: Test 4 injury to paddy rice; conditions: two-leaf stage seedlings, 28th day from application
Sagittaria pygmaea Miq. [8] = assay: Test 2 paddy pot herbicidal effect with water drainage and feeding; type: in vivo; conditions: water drainage and feeding 2 cm per day for two days, 28th day
Experimental: (§2) Further, a tuber of Sagittaria pygmaea Miq. was buried. […] For two days starting from the next day, water drainage and feeding each of 2 cm in depth per day were conducted.

[9] = test system: Monochoria vaginalis (Burm. f.) Presl var. plantaginea (Roxb.) Solms-Laub.; assay: as above; type: in vivo; conditions: water drainage and feeding 2 cm per day for two days, 28th day
Experimental: as §2

Cyperus serotinus Rottb. = assay: Test 4 paddy pot herbicidal effect; conditions: applied next day, 28th day from application

COc1cc(OC)nc(C(O)c2ccccc2NS(=O)(=O)C(F)(F)F)n1 (stereo not drawn) [Comparative Compound, 2-[(4,6-dimethoxypyrimidine-2-yl)hydroxymethyl]-N-trifluoromethanes ulfonyl anilide, reference compound]
Herbicidal effect Ec ([1]; 0.4 g/10 ares): 0 (Herbicidal effect of less than 10%, injury to paddy rice)
Herbicidal effect Ec ([1]; 1.6 g/10 ares): 1 (Herbicidal effect of 10% or more to less than 30%, injury to paddy rice)
Herbicidal effect Ec ([1]; 6.3 g/10 ares): 3 (Herbicidal effect of 50% or more to less than 70%, injury to paddy rice)
Herbicidal effect Ec ([1]; 25.0 g/10 ares): 4 (Herbicidal effect of 70% or more to less than 90%, injury to paddy rice)
Herbicidal effect Mo ([2]; 0.4 g/10 ares): 4 (Herbicidal effect of 70% or more to less than 90%, injury to paddy rice)
Herbicidal effect Mo ([2]; 1.6 g/10 ares): 5 (Herbicidal effect of 90% or more, injury to paddy rice)
Herbicidal effect Mo ([2]; 6.3 g/10 ares): 5 (Herbicidal effect of 90% or more, injury to paddy rice)
Herbicidal effect Mo ([2]; 25.0 g/10 ares): 5 (Herbicidal effect of 90% or more, injury to paddy rice)
Herbicidal effect (Ec) Application at 3-leaf stage ([3]; 0.3 g/10 ares): 0 (Herbicidal effect of less than 10%, injury to paddy rice)
Herbicidal effect (Ec) Application before germination ([3]; 0.3 g/10 ares): 0 (Herbicidal effect of less than 10%, injury to paddy rice)
Herbicidal effect (Ec) Application at 3-leaf stage ([3]; 0.6 g/10 ares): 0 (Herbicidal effect of less than 10%, injury to paddy rice)
Herbicidal effect (Ec) Application before germination ([3]; 0.6 g/10 ares): 0 (Herbicidal effect of less than 10%, injury to paddy rice)
Herbicidal effect (Ec) Application at 3-leaf stage ([3]; 1.3 g/10 ares): 0 (Herbicidal effect of less than 10%, injury to paddy rice)
Herbicidal effect (Ec) Application before germination ([3]; 1.3 g/10 ares): 1 (Herbicidal effect of 10% or more to less than 30%, injury to paddy rice)
Herbicidal effect (Ec) Application at 3-leaf stage ([3]; 2.5 g/10 ares): 0 (Herbicidal effect of less than 10%, injury to paddy rice)
Herbicidal effect (Ec) Application before germination ([3]; 2.5 g/10 ares): 2 (Herbicidal effect of 30% or more to less than 50%, injury to paddy rice)
Herbicidal effect (Ec) Application at 3-leaf stage ([3]; 5.0 g/10 ares): 1 (Herbicidal effect of 10% or more to less than 30%, injury to paddy rice)
Herbicidal effect (Ec) Application before germination ([3]; 5.0 g/10 ares): 3 (Herbicidal effect of 50% or more to less than 70%, injury to paddy rice)
Herbicidal effect (Ec) Application stage 1-leaf ([4]; 1.3 g/10 ares): 0 (Herbicidal effect of less than 10%, injury to paddy rice)
Herbicidal effect (Ec) Application stage 2-leaf ([4]; 1.3 g/10 ares): 0 (Herbicidal effect of less than 10%, injury to paddy rice)
Herbicidal effect (Ec) Application stage 3-leaf ([4]; 1.3 g/10 ares): 0 (Herbicidal effect of less than 10%, injury to paddy rice)
Herbicidal effect (Ec) Application stage 1-leaf ([4]; 2.5 g/10 ares): 1 (Herbicidal effect of 10% or more to less than 30%, injury to paddy rice)
Herbicidal effect (Ec) Application stage 2-leaf ([4]; 2.5 g/10 ares): 0 (Herbicidal effect of less than 10%, injury to paddy rice)
Herbicidal effect (Ec) Application stage 3-leaf ([4]; 2.5 g/10 ares): 0 (Herbicidal effect of less than 10%, injury to paddy rice)
Herbicidal effect (Ec) Application stage 1-leaf ([4]; 5.0 g/10 ares): 3 (Herbicidal effect of 50% or more to less than 70%, injury to paddy rice)
Herbicidal effect (Ec) Application stage 2-leaf ([4]; 5.0 g/10 ares): 2 (Herbicidal effect of 30% or more to less than 50%, injury to paddy rice)
Herbicidal effect (Ec) Application stage 3-leaf ([4]; 5.0 g/10 ares): 2 (Herbicidal effect of 30% or more to less than 50%, injury to paddy rice)
Herbicidal effect Sa (Sagittaria pygmaea Miq. [5]; 0.6 g/10 ares): 5 (Herbicidal effect of 90% or more, injury to paddy rice)
Herbicidal effect Sa (Sagittaria pygmaea Miq. [5]; 1.3 g/10 ares): 5 (Herbicidal effect of 90% or more, injury to paddy rice)
Herbicidal effect Sa (Sagittaria pygmaea Miq. [5]; 2.5 g/10 ares): 5 (Herbicidal effect of 90% or more, injury to paddy rice)
Herbicidal effect Sa (Sagittaria pygmaea Miq. [5]; 5.0 g/10 ares): 5 (Herbicidal effect of 90% or more, injury to paddy rice)
Herbicidal effect Ec ([6]; 0.6 g/10 ares): 0 (Herbicidal effect of less than 10%, injury to paddy rice)
Herbicidal effect Ec ([6]; 1.3 g/10 ares): 1 (Herbicidal effect of 10% or more to less than 30%, injury to paddy rice)
Herbicidal effect Ec ([6]; 2.5 g/10 ares): 2 (Herbicidal effect of 30% or more to less than 50%, injury to paddy rice)
Herbicidal effect Ec ([6]; 5.0 g/10 ares): 4 (Herbicidal effect of 70% or more to less than 90%, injury to paddy rice)
Injury to rice Or ([7]; 0.6 g/10 ares): 0 (Herbicidal effect of less than 10%, injury to paddy rice)
Injury to rice Or ([7]; 1.3 g/10 ares): 0 (Herbicidal effect of less than 10%, injury to paddy rice)
Injury to rice Or ([7]; 2.5 g/10 ares): 0 (Herbicidal effect of less than 10%, injury to paddy rice)
Injury to rice Or ([7]; 5.0 g/10 ares): 1 (Herbicidal effect of 10% or more to less than 30%, injury to paddy rice)
Herbicidal effect Sc (Sagittaria pygmaea Miq. [8]; 0.6 g/10 ares): 0 (Herbicidal effect of less than 10%, injury to paddy rice)
Herbicidal effect Sc (Sagittaria pygmaea Miq. [8]; 1.3 g/10 ares): 2 (Herbicidal effect of 30% or more to less than 50%, injury to paddy rice)
Herbicidal effect Sc (Sagittaria pygmaea Miq. [8]; 2.5 g/10 ares): 4 (Herbicidal effect of 70% or more to less than 90%, injury to paddy rice)
Herbicidal effect Sc (Sagittaria pygmaea Miq. [8]; 5.0 g/10 ares): 5 (Herbicidal effect of 90% or more, injury to paddy rice)
Herbicidal effect Ec ([9]; 0.6 g/10 ares): 0 (Herbicidal effect of less than 10%, injury to paddy rice)
Herbicidal effect Ec ([9]; 1.3 g/10 ares): 1 (Herbicidal effect of 10% or more to less than 30%, injury to paddy rice)
Herbicidal effect Ec ([9]; 2.5 g/10 ares): 3 (Herbicidal effect of 50% or more to less than 70%, injury to paddy rice)
Herbicidal effect Ec ([9]; 5.0 g/10 ares): 5 (Herbicidal effect of 90% or more, injury to paddy rice)
Herbicidal effect Cy (Cyperus serotinus Rottb.; 0.6 g/10 ares): 5 (Herbicidal effect of 90% or more, injury to paddy rice)
Herbicidal effect Cy (Cyperus serotinus Rottb.; 1.3 g/10 ares): 5 (Herbicidal effect of 90% or more, injury to paddy rice)
Herbicidal effect Cy (Cyperus serotinus Rottb.; 2.5 g/10 ares): 5 (Herbicidal effect of 90% or more, injury to paddy rice)
Herbicidal effect Cy (Cyperus serotinus Rottb.; 5.0 g/10 ares): 5 (Herbicidal effect of 90% or more, injury to paddy rice)
